± gives the standard deviation of the averaged measurements.
Experiments:
Danio rerio embryo [1] = assay: spontaneous tail coiling frequency (coils/min/embryo); higher = more spontaneous movement; conditions: 25 hpf
Experimental: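 Spontaneous tail coilings of zebrafish embryos exposed from 2 hpf were recorded at 24-25 hpf in 1-min videos and detected by a KNIME workflow from grey-value variance. Betamethasone was tested as the dipropionate, diflorasone as the diacetate.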

Danio rerio embryo [2] = conditions: exposure time: 4 dpf
Experimental: (§1)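 Zebrafish embryos (UFZ-OBI strain) were exposed from 2 hpf for 48 h (2 dpf) or 96 h (4 dpf) at 28 °C; spontaneous tail coiling was scored at 25 hpf. Morphological features from automated image analysis (FishInspector), heart rate and locomotor response were fitted with drc models. Quantal endpoints were dichotomised at 2.5 SD from controls and fitted with a log-logistic model; heart rate, pigmentation and STC were normalised to the replicate control mean. Betamethasone was tested as betamethasone dipropionate, diflorasone as diflorasone diacetate.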

Danio rerio embryo [3] = assay: EC50 Bladder size_Decrease; conditions: exposure time: 4 dpf
Experimental: as §1

Danio rerio embryo [4] = assay: EC50 Pericard size_Increase; conditions: exposure time: 4 dpf
Experimental: as §1

Danio rerio embryo [5] = assay: EC50 Eye-jaw distance_Decrease; conditions: exposure time: 4 dpf
Experimental: as §1

Danio rerio embryo [6] = assay: EC10 Lack of SB; higher = less potent; conditions: exposure time: 4 dpf
Experimental: as §1

Danio rerio embryo [7] = assay: EC20 Lack of SB; higher = less potent; conditions: exposure time: 4 dpf
Experimental: as §1

Danio rerio embryo [8] = assay: EC10 Bladder size_Decrease; higher = less potent; conditions: exposure time: 4 dpf
Experimental: as §1

Danio rerio embryo [9] = assay: EC20 Bladder size_Decrease; higher = less potent; conditions: exposure time: 4 dpf
Experimental: as §1

Danio rerio embryo [10] = assay: EC20 Pericard size_Increase; higher = less potent; conditions: exposure time: 4 dpf
Experimental: as §1

Danio rerio embryo [11] = assay: EC10 Pericard size_Increase; higher = less potent; conditions: exposure time: 4 dpf
Experimental: as §1

Danio rerio embryo [12] = assay: EC20 Eye-jaw distance_Decrease; higher = less potent; conditions: exposure time: 4 dpf
Experimental: as §1

Danio rerio embryo [13] = assay: EC10 Eye-jaw distance_Decrease; higher = less potent; conditions: exposure time: 4 dpf
Experimental: as §1

## COc1ccc(Cl)cc1C(=O)NCCc1ccc(S(=O)(=O)NC(=O)NC2CCCCC2)cc1 [Glibenclamide]
Danio rerio embryo [1]; 3.16 µM
  spontaneous tail coiling frequency: 1.79
Danio rerio embryo [1]; 3.2 µM
  spontaneous tail coiling frequency: 0.98
Danio rerio embryo [1]; 6.3 µM
  spontaneous tail coiling frequency: 1.48
Danio rerio embryo [1]; 6.33 µM
  spontaneous tail coiling frequency: 1.79
Danio rerio embryo [1]; 12.65 µM
  spontaneous tail coiling frequency: 0.8
Danio rerio embryo [1]; 12.7 µM
  spontaneous tail coiling frequency: 1.41
Danio rerio embryo [1]; 25.3 µM
  spontaneous tail coiling frequency: 1.69 ± 1.1
Danio rerio embryo [1]; 50.6 µM
  spontaneous tail coiling frequency: 1.97
Danio rerio embryo [1]; 50.61 µM
  spontaneous tail coiling frequency: 1.66

## CC(=O)OCC(=O)[C@@]1(OC(C)=O)[C@@H](C)C[C@H]2[C@@H]3C[C@H](F)C4=CC(=O)C=C[C@]4(C)[C@@]3(F)[C@@H](O)C[C@@]21C [diflorasone diacetate]
Danio rerio embryo [2]
  EC50 Lack of SB: 379 nM
Danio rerio embryo [3]
  EC50 Bladder size Decrease: 176 nM
Danio rerio embryo [4]
  EC50 Pericard size Increase: 2080 nM
Danio rerio embryo [5]
  EC50 Eye-jaw distance Decrease: 2380 nM
Danio rerio embryo [6]
  EC10 Lack of SB: 45 nM
Danio rerio embryo [7]
  EC20 Lack of SB: 99 nM
Danio rerio embryo [8]
  EC10 Bladder size Decrease: 37 nM
Danio rerio embryo [9]
  EC20 Bladder size Decrease: 66 nM
Danio rerio embryo [10]
  EC20 Pericard size Increase: 127 nM
Danio rerio embryo [11]
  EC10 Pericard size Increase: 25 nM
Danio rerio embryo [12]
  EC20 Eye-jaw distance Decrease: 41 nM
Danio rerio embryo [13]
  EC10 Eye-jaw distance Decrease: 4 nM
Danio rerio embryo [1]; 0.63 µM
  spontaneous tail coiling frequency: 2.46
Danio rerio embryo [1]; 1.2 µM
  spontaneous tail coiling frequency: 2.87
Danio rerio embryo [1]; 1.26 µM
  spontaneous tail coiling frequency: 2.52
Danio rerio embryo [1]; 2 µM
  spontaneous tail coiling frequency: 2.33
Danio rerio embryo [1]; 2.5 µM
  spontaneous tail coiling frequency: 2.17
Danio rerio embryo [1]; 3 µM
  spontaneous tail coiling frequency: 1.89
Danio rerio embryo [1]; 4 µM
  spontaneous tail coiling frequency: 2.36
Danio rerio embryo [1]; 6 µM
  spontaneous tail coiling frequency: 2.7
Danio rerio embryo [1]; 10.1 µM
  spontaneous tail coiling frequency: 1.56
